Reference: US20070207093A1, “Hydrazone derivatives and uses thereof” (Linquagen Corp., priority 2005, published 2007)

How the values were obtained:
Format in all cases: cell-based
human TRPM5 ion channel = molecular target: T1, human TRPM5 ion channel (Homo sapiens, UniProt Q9NZQ8); assay: TRPM5 FLIPR membrane potential screening assay (ATP stimulation); settings: 10 μM compound; HEK293 cells stably expressing human TRPM5; 3 μM ATP stimulation; versus negative control wells; read-out: TRPM5 Activity (percent inhibition)
T1 construct: expressed in transfected cells
T1 sequence (Q9NZQ8 1-1165): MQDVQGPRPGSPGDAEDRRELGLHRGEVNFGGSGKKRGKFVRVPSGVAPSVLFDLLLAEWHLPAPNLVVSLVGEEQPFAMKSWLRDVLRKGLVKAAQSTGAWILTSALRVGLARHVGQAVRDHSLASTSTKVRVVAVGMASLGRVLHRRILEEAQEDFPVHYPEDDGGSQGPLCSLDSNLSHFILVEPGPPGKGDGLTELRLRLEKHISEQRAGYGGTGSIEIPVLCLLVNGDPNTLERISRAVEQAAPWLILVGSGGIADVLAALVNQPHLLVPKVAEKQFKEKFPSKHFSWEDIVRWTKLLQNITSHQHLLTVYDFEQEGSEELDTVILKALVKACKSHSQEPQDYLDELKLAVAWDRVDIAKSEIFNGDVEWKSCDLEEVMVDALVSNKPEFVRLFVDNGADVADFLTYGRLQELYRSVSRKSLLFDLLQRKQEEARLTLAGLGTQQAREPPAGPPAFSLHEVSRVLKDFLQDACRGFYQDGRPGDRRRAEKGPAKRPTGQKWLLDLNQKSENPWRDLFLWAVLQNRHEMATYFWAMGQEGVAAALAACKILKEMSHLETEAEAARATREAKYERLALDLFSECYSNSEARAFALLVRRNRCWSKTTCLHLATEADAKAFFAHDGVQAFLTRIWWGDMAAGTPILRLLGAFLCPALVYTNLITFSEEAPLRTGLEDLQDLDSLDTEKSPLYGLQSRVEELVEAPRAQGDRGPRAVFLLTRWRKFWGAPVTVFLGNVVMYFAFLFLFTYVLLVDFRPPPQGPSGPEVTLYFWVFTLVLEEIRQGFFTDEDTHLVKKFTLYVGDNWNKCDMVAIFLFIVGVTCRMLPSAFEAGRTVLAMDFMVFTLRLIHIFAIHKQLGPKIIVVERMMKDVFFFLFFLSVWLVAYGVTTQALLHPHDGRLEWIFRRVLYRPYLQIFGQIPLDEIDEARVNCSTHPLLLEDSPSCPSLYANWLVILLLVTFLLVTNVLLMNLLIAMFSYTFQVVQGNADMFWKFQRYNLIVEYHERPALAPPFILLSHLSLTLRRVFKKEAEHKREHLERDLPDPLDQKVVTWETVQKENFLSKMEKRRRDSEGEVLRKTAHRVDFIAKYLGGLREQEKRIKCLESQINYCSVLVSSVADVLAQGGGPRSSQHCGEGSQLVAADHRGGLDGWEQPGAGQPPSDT
Experimental: The activity of human TRPM5 ion channel was measured in live cells on a fluorescent imaging plate reader (FLIPR). The basis of the assay (shown in FIG. 1) is the calcium-dependent activation of the ion channel which occurs via by activation of a G-protein coupled receptor (GPCR). GPCR activation by an appropriate agonist causes a transient increase in […] Ca^2+ ion concentration which in turn causes the ion channel to open, letting in Na^+ ions. This influx causes a change in the membrane potential of the cell which can be monitored as a change in the fluorescent signal from voltage-dependent (membrane potential) fluorescent dyes.
For the screening assay, the human TRPM5 gene was cloned, put into HEK293 cells, and a stable, high expression clone was used for screening. Cells were grown in standard media at 37° C. The day before screening, the cells were removed from flasks and added to 384 well clear bottom plates (8K cells in 20 μL/well). On the assay day, 20 μL of membrane potential dye (Part No. R8123, Molecular Devices Corp.) was added to the cells and dye was allowed to be taken up, i.e., load, into the cells for 1 hr at 37° C. […] The assay was started by addition of 10 μL of solution from the compound plate into the cell plate. During this process, continuous fluorescent recordings were made simultaneously for all wells. After addition of the compound solution, the tips were automatically washed and a stimulation solution of 3 μM ATP (an agonist for an endogenous purinurgic GPCR, was added to all wells of the cell plate. The height of the response was calculated and percent inhibition values, versus negative control wells, was calculated for the test samples.
(§1) Unless otherwise indicated, the data in the table below were determined using the three assays described above, providing percent inhibition data at 10 μM.

[1] = system: GPCR-mediated calcium activation step; assay: Calcium counterscreen (calcium sensitive dye, ATP stimulation); settings: Homo sapiens, 10 μM compound, same HEK293 TRPM5 cells, Calcium3 dye, read-out: Calcium Counterscreen (percent inhibition)
Experimental: (§2) Two counterscreen assays were run on separate cell plates utilizing the same cells as described above. In the calcium counterscreen, the cells were loaded with a calcium sensitive dye (Calcium3 Dye, Part no. 8090, Molecular Devices Corp.) and stimulated by ATP to check for compounds that block the GPCR-mediated calcium activation step. In the KCl counterscreen, cells are stimulated with 10 mM KCl instead of ATP to check for compounds that inhibit the membrane potential response by virtue of being non-specific ion channel blockers.
as §1

[2] = system: membrane potential response (non-specific ion channel block); assay: KCl counterscreen (membrane potential dye, 10 mM KCl stimulation); settings: Homo sapiens; 10 μM compound; same HEK293 TRPM5 cells; 10 mM KCl instead of ATP; read-out: KC1 Counterscreen (percent inhibition)
Experimental: as §2, §1

| Compound | inhibition at 10 µM (human TRPM5 ion channel) [%] | inhibition at 10 µM [1] [%] | inhibition at 10 µM [2] [%] |
| --- | --- | --- | --- |
| COC(=O)c1ccc(/N=N/C(=N\Nc2nc3ccccc3s2)C(C)C)cc1 [Example 1, Methyl 4-((E)-((Z)-1-(2-(benzo[d]thiazol-2-yl)hydrazono) -2-methylpropyl)diazenyl)benzoate] | 60 | -11 | 20 |
| O=C(O)COc1ccc(Br)cc1/C=N/Nc1cccc2cccnc12 [Example 2, (E)-2-(4-Bromo-2-((2-(quinolin-8-yl)hydrazono)methyl)phenoxy)acetic acid] | 87 | -10 | 70 |
| COc1ccc(/C=N/NC(=O)C2CC2c2ccccc2)cc1OC (stereo not drawn) [Example 4, (E)-N′-(3,4-Dimethoxybenzylidene)-2-phenylcyclopropanecarbohydrazide] | 99 | -1 | -4 |
| COc1ccc(/C=N/NC(=O)CC(CO)C2=CCCCC2)cc1 (stereo not drawn) [Example 5, (E)-3-Cyclohexenyl-4-hydroxy-N′-(4-methoxybenzylidene)butanehydrazide] | 96 | -7 | 29 |
| CCCCCCCC(O)CCC(=O)N/N=C/c1ccc(OC)c(OC)c1 (stereo not drawn) [Example 6] | 93 | 0 | -15 |
| O=C(O)c1ccccc1N/N=C(\N=N\c1ccccc1)c1ccccc1 [Example 7, 2-((Z)-2-(Phenyl-((E)-phenyldiazenyl) -methylene)hydrazinyl)benzoic acid] | 83 | -17 | 81 |
| COc1ccc(/C=N/NC(=O)COc2cccc(C)c2)cc1OC [Example 8, (E)-N′-(3,4-Dimethoxybenzylidene)-2-(m-tolyloxy)acetohydrazide] | 76 | -3 | 7 |
| C=CCOc1ccc(/C=N/NC(=O)CSCc2cccc(Br)c2)cc1OC [Example 9, (E)-N′-(4-(Allyloxy)-3-methoxybenzylidene)-2-(3-bromobenzylthio)acetohydrazide] | 80 | 2 | 21 |
| CC(C)c1ccc(/C=N/NC(=O)C2C3CCCCC32)cc1 (stereo not drawn) [Example 10, (E)-N′-(4-Isopropylbenzylidene)bicyclo[4.1.0.]heptane-7-carbohydrazide] | 78 | -38 | -11 |
| CN1/C(=C\C=N\Nc2ccc([N+](=O)[O-])cc2)C(C)(C)c2ccccc21 [Example 11, (Z)-1,3,3-Trimethyl-2-((E)-2-(2-(4-nitrophenyl)hydrazono)ethylidene)indoline] | 67 | 23 | 14 |
| CCN(CC)c1ccc(/C=N/NC(=O)C2CC2c2ccccc2)c(O)c1 (stereo not drawn) [Example 12, (E)-N′-(4-(Diethylamino)-2-hydroxybenzylidene) -2-phenylcyclopropanecarbohydrazide] | 48 | -35 | -7 |
| N#CC(C#N)=NNc1ccc(SC(F)(F)F)cc1 [Example 13, (4-(Trifluoromethylthio)penyl)carbonohydrazonoyldicyanide] | 78 | 2 | 65 |
| Cc1ccc2c(c1)/C(=N/NC(=O)/C(=C\c1ccccc1)NC(=O)c1ccccc1)C(=O)N2C [Example 14, N-((E)-3-((Z)-2-(1,5-Dimethyl-2-oxoindolin-3-ylidene)hydrazinyl)-3-oxo-1-phenylprop-1-en-2-yl)benzamide] | 78 | -29 | 40 |
| CCCCn1cc(/C=N\Nc2ccccc2C(=O)O)c2ccccc21 [Example 15, (Z)-2-(2-((1-Butyl-1H-indol-3-yl)methylene)hydrazinyl)benzoic acid] | 74 | 4 | 43 |
| C(=N\N(Cc1ccccc1)c1ccccc1)/c1ccncc1 [Example 16, (E)-4-((2-Benzyl-2-phenylhydrazono)methyl)pyridine] | 74 | -6 | -2 |
| O=C(N/N=C\c1ccc[nH]1)C12CC3CC(CC(C3)C1)C2 [Example 17, (Z)-N′-((1H-Pyrrol-2-yl)methylene)tricyclo [3.3.1^3,7]decane-3-carbohydrazide] | 40 | -13 | 8 |
| CCN(CCO)c1ccc(N/N=C2\C(=O)C=Cc3ccccc32)cc1 [Example 18, (Z)-1-(2-(4-(Ethyl-(2-hydroxyethyl)-amino)phenyl)hydrazono)naphthalen-2(1H)-one] | 87 | -9 | 33 |
| CN(/N=C/c1ccc(O)cc1O)c1ncc(Cl)cc1C(F)(F)F [Example 19, (E)-4-((2-(5-Chloro-3-(trifluoromethyl)pyridini-2-yl)-2-2-methylhydrazono)methyl)benzene-1,3-diol] | 65 | 5 | 36 |
| Cc1ccc(NCC(=O)N/N=C/c2ccc(N3CCOCC3)c([N+](=O)[O-])c2)cc1C [Example 20, (E)-2-(3,4-Dimethylphenylamino)-N′-(4-morpholino-3-nitrobenzylidene)acetohydrazide] | 70 | -3 | 16 |
| O=[N+](O)c1ccc(N2CCCC2)cc1N/N=C1\CN2CCC1CC2 [Example 21] | 51 | 6 | 42 |
| CCN(CC)c1ccc(/C=N/Nc2nc3ccccc3[nH]2)c(O)c1 [Example 22, (E)-2-((2-(1H-Benzo[d]imidazol-2-yl)hydrazono)methyl)-5-(diethylamino)phenol] | 58 | -23 | 32 |
